What was measured:
human liver GK = target: T1, human liver GK (Homo sapiens, UniProt P35557); assay: GK activation test; format: biochemical; conditions: GST-fused human liver GK, 4 mM glucose, 2 mM ATP, absorbance at 405 nm after 15 minutes; read-out: EC50 (test compound concentration needed to activate 50% of the maximum activation ability)
T1 construct: GST (glutathione S-transferase) (N); made in house; host or cells: E. coli
T1 sequence (P35557 1-466 isoform P35557-2): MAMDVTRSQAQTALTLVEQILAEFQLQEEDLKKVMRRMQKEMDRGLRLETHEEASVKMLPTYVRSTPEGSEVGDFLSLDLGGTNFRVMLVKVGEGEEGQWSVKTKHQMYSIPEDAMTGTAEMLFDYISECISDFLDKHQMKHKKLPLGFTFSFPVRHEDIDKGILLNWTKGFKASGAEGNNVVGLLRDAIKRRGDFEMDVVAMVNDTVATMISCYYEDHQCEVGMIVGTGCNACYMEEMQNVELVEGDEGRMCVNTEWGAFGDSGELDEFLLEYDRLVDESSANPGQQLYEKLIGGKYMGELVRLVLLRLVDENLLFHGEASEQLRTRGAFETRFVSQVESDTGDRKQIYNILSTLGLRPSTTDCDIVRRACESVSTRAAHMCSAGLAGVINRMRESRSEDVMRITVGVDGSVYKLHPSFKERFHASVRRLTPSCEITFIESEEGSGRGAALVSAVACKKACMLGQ
Protocol: The GK activation test for the test compounds was carried out by the method of Van Schaftingen et al. (Eur. J. Biochem. 179:179-184, 1989) with partial modifications. The GK activity was measured by the change in the absorbance based on an amount of thio-NADH, which is a reduced form product converted from thio-NAD+ (thionicothinamide-adeninedinucleotide) when dehydrogenating glucose 6-phosphate, produced by GK using glucose as a matrix, with G6PDH (glucose-6-phosphate dehydrogenase).
The enzyme source used in this assay, human liver GK, was expressed in E. coli as a fusion protein with GST (glutathione S-transferase) added to the amino terminus and was purified using Glutathione Sepharose 4B (Amersham Biosciences).
The test was carried out using flat-bottom 96-well half area microplates (Corning). A solution of the test compound in dimethyl sulfoxide (DMSO) at a final concentration of 1% in DMSO and DMSO as a control were added to each well of the plates. Further, 25 mM Hepes-KOH (pH=7.1), 25 mM KCl, 2 mM MgCl2, 2 mM thio-NAD+, 4 mM glucose, 1 mM DTT (dithiothreitol), 0.01 units/μL G6PDH and 2 μg/mL human liver GK were added as the final concentrations, respectively, to each of the wells. Subsequently, ATP was added to each of the wells to give the final concentration of 2 mM, and the reaction was started. The microplates were allowed to stand at room temperature. After 15 minutes from the start of reaction, the absorbance at 405 nm was measured using an absorption spectrometer for microplate.
The GK activity maximally activated by the test compound was taken as the maximum activation ability, and the test compound concentration (nM) needed to activate 50% of that maximum activation ability was expressed as EC50.

C57BL6/J mice = assay: Hypoglycemia test using C57BL6/J mice; format: in vivo; conditions: oral, ad libitum fed C57BL6/J mice, plasma glucose AUC 0-6 hours vs control group
Protocol: The test to verify the hypoglycemic effect of the test compounds was carried out in accordance with a method commonly used and represented by the method of Grimsby et. al (Science 301: 370-373, 2003).
The body weight of C57BL6/J mice (N=6), who were ad libitum fed before the test, was measured. The test compound was suspended or dissolved in the base to be administered (0.5% methyl cellulose) at a concentration of 0.06 to 20 mg/mL. The mice were orally administered with 5 mL/kg of a drug solution (equivalent to 0.3 to 100 mg/kg of the test compound) or control (only the base to be administered). About 60 μL of blood was collected from the tail vein using a capillary tube immediately before administration of the test compound and 0.5, 1, 2, 4 and 6 hours after administration of the test compound. The collected blood was centrifuged and subsequently measured for the plasma glucose concentration. The area under the curve (AUC) was calculated from changes over time in the plasma glucose concentration after administration of the test compound, and a reduction rate (%) to AUC of the control group was calculated. The dose at which an AUC decreasing percentage was 20% (ED20 value; mg/kg) was calculated from the dose response curve having the AUC reduction rate plotted on the vertical axis and the dose plotted on the horizontal axis.

SMILES: CC(F)(F)c1ccc([C@@H](C[C@H]2CCC(=O)N2)c2ccc(C3CC3)c(=O)[nH]2)cc1 [Compound [1], 3-cyclopropyl-6-{(1R)-1-[4-(1,1-difluoroethyl)phenyl]-2-[(2R)-5-oxopyrrolidin-2-yl]ethyl}pyridin-2(1H)-one]
- EC50 (human liver GK): 295 nM
- ED20 (dose at which the plasma glucose AUC decreasing percentage was 20%) (C57BL6/J mice): 4.2 mg/kg

SMILES: CCc1ccc([C@@H](C[C@H]2CCC(=O)N2)c2ccc(C3CC3)c(=O)[nH]2)cc1 [Compound A]
- EC50 (human liver GK): 520 nM
- ED20 (dose at which the plasma glucose AUC decreasing percentage was 20%) (C57BL6/J mice): 11.5 mg/kg

SMILES: CC(F)(F)c1ccc([C@@H](C[C@H]2CCC(=O)N2)c2ccc(C3CC3)c(=O)[nH]2)cc1 (single isomer, unassigned) [Compound B]
- EC50 (human liver GK): 1330 nM
- ED20 (dose at which the plasma glucose AUC decreasing percentage was 20%) (C57BL6/J mice): 15.6 mg/kg

SMILES: O=C1CC[C@H](C[C@H](c2ccc(C(F)F)cc2)c2ccc(C3CC3)c(=O)[nH]2)N1 [Compound C]
- EC50 (human liver GK): 597 nM
- ED20 (dose at which the plasma glucose AUC decreasing percentage was 20%) (C57BL6/J mice): 32.0 mg/kg

Reference: patent US9695148B2, “2-pyridone compound” (TAISHO PHARMACEUTICAL CO., LTD., priority 2012, dated 2017)
